# Legend:
# [1] = target: T1, GRK5 (Homo sapiens, UniProt P34947); experiment: Lance Kinase Activity Assay, GRK5; settings: biochemical Lance kinase activity assay; class symbols A-F; read-out: GRK5 LANCE Assay (IC-50)
# T1 construct: purchased Thermo Scientific
# How it was run: (§1)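 IC50s from sigmoidal dose-response over 0.0025-10 μM compound, with phosphorylated ULight substrate detected by Eu anti-phospho antibody FRET after EDTA quench.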
# [2] = target: T2, GRK2 (Homo sapiens, UniProt P25098); experiment: Lance Kinase Activity Assay, GRK2; settings: biochemical Lance kinase activity assay; class symbols A-F; read-out: GRK2 LANCE Assay (IC-50)
# T2 construct: purchased Thermo Scientific
# T2 sequence (P25098 1-689): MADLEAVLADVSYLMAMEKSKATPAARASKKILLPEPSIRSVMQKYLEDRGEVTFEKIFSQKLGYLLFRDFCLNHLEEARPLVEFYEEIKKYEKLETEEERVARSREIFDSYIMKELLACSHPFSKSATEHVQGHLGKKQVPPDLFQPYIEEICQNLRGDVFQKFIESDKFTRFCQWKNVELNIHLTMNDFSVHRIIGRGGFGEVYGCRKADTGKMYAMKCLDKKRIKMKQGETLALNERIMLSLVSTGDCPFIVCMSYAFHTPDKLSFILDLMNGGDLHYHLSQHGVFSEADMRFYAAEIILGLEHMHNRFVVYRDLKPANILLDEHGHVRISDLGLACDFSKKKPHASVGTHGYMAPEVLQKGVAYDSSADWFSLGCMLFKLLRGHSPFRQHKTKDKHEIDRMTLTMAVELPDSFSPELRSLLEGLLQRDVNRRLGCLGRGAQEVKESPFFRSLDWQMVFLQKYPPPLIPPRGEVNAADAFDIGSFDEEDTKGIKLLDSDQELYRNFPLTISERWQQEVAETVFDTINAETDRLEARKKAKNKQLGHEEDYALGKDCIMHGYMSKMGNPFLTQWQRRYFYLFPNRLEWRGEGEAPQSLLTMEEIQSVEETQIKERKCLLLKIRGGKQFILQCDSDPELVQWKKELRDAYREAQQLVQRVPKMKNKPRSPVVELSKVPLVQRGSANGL
# How it was run: as §1
# T1 sequence (P34947 whole entry): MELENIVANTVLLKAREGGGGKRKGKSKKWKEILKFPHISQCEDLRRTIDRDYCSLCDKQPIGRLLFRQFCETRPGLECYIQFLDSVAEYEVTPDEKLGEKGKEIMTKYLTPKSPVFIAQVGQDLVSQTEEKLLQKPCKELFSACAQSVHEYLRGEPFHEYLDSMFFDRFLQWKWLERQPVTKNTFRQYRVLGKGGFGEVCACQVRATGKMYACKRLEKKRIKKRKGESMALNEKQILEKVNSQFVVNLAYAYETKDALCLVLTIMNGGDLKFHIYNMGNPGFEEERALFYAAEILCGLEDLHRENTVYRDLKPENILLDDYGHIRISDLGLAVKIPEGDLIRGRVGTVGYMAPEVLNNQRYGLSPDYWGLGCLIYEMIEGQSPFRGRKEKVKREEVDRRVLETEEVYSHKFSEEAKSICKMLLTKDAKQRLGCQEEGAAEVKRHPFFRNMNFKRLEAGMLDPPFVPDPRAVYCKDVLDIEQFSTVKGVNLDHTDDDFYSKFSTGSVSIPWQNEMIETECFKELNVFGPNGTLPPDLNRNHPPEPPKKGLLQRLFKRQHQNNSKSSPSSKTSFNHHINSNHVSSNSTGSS
SMILES,IC50 [1] [nM],IC50 [2] [nM]
COc1ccc([C@@H](C)NC(=O)/C=C/c2c[nH]c3ncc(-c4cccc(CCN(C)C)c4)cc23)cc1OC [Example 192],≤ 50,1000 to 10000
COc1ccc([C@@H](C)NC(=O)/C=C/c2c[nH]c3ncc(-c4cccc(NS(C)(=O)=O)c4)cc23)cc1OC [Example 193],≤ 50,1000 to 10000
COc1ccc([C@@H](C)NC(=O)/C=C/c2c[nH]c3ncc(-c4ccc(CN5CCOCC5)cc4)cc23)cc1OC [Example 194],≤ 50,1000 to 10000
"COc1ccc([C@@H](C)NC(=O)/C=C/c2c[nH]c3ncc(-c4cccc(N(C)C)c4)cc23)cc1OC [Example 195, (R,E)-N-(1-(3,4-dimethoxyphenyl)ethyl)-3-(5-(3-(dimethylamino)phenyl)-1H-pyrrolo[2,3-b]pyridin-3-yl)acrylamide]",≤ 50,> 10000
"COc1ccc([C@@H](C)NC(=O)/C=C/c2c[nH]c3ncc(-c4ccc(C5CCN(C)CC5)cc4)cc23)cc1OC [Example 196, (R,E)-N-(1-(3,4-dimethoxyphenyl)ethyl)-3-(5-(4-(1-methylpiperidin-4-yl)phenyl)-1H-pyrrolo[2,3-b]pyridin-3-yl)acrylamide]",≤ 50,100 to 500
"COc1ccc([C@@H](C)NC(=O)/C=C/c2c[nH]c3ncc(-c4ccc(OCCN(C)C)cc4)cc23)cc1OC [Example 197, (R,E)-N-(1-(3,4-dimethoxyphenyl)ethyl)-3-(5-(4-(2-(dimethylamino)ethoxy)phenyl)-1H-pyrrolo[2,3-b]pyridin-3-yl)acrylamide]",≤ 50,500 to 1000
"COc1ccc([C@@H](C)NC(=O)/C=C/c2c[nH]c3ncc(-c4cccc(S(=O)(=O)N(C)C)c4)cc23)cc1OC [Example 198, (R,E)-N-(1-(3,4-dimethoxyphenyl)ethyl)-3-(5-(3-(N,N-dimethylsulfamoyl)phenyl)-1H-pyrrolo[2,3-b]pyridin-3-yl)acrylamide]",≤ 50,1000 to 10000
"COc1ccc([C@@H](C)NC(=O)/C=C/c2c[nH]c3ncc(-c4cccc(-c5ncc[nH]5)c4)cc23)cc1OC [Example 199, (R,E)-3-(5-(3-(1H-imidazol-2-yl)phenyl)-1H-pyrrolo[2,3-b]pyridin-3-yl)-N-(1-(3,4-dimethoxyphenyl)ethyl)acrylamide]",≤ 50,> 10000
"COc1ccc([C@@H](C)NC(=O)/C=C/c2c[nH]c3ncc(-c4ccc(C(N)=O)cc4)cc23)cc1OC [Example 200, (R,E)-4-(3-(3-((1-(3,4-dimethoxyphenyl)ethyl)amino)-3-oxoprop-1-en-1-yl)-1H-pyrrolo[2,3-b]pyridin-5-yl)benzamide]",≤ 50,1000 to 10000
"COc1ccc([C@@H](C)NC(=O)/C=C/c2c[nH]c3ncc(-c4ccc(F)cc4OC)cc23)cc1OC [Example 201, (R,E)-N-(1-(3,4-dimethoxyphenyl)ethyl)-3-(5-(4-fluoro-2-methoxyphenyl)-1H-pyrrolo[2,3-b]pyridin-3-yl)acrylamide]",100 to 500,> 10000
"COc1ccc([C@@H](C)NC(=O)/C=C/c2c[nH]c3ncc(-c4cnn(C)c4C)cc23)cc1OC [Example 202, (R,E)-N-(1-(3,4-dimethoxyphenyl)ethyl)-3-(5-(1,5-dimethyl-1H-pyrazol-4-yl)-1H-pyrrolo[2,3-b]pyridin-3-yl)acrylamide]",≤ 50,1000 to 10000
"COc1ccc([C@@H](C)NC(=O)/C=C/c2c[nH]c3ncc(-c4cccc(CNC(C)=O)c4)cc23)cc1OC [Example 203, (R,E)-3-(5-(3-(acetamidomethyl)phenyl)-1H-pyrrolo[2,3-b]pyridin-3-yl)-N-(1-(3,4-dimethoxyphenyl)ethyl)acrylamide]",≤ 50,1000 to 10000
"COc1ccc([C@@H](C)NC(=O)/C=C/c2c[nH]c3ncc(-c4cnn(C)c4)cc23)cc1OC [Example 204, (R,E)-N-(1-(3,4-dimethoxyphenyl)ethyl)-3-(5-(1-methyl-1H-pyrazol-4-yl)-1H-pyrrolo[2,3-b]pyridin-3-yl)acrylamide]",≤ 50,1000 to 10000
"COc1ccc([C@@H](C)NC(=O)/C=C/c2c[nH]c3ncc(-c4ccccc4CN4CCOCC4)cc23)cc1OC [Example 206, (R,E)-N-(1-(3,4-dimethoxyphenyl)ethyl)-3-(5-(2-(morpholinomethyl)phenyl)-1H-pyrrolo[2,3-b]pyridin-3-yl)acrylamide]",1000 to 10000,> 10000
"COc1ccc([C@@H](C)NC(=O)/C=C/c2c[nH]c3ncc(-c4cncnc4)cc23)cc1OC [Example 207, (R,E)-N-(1-(3,4-dimethoxyphenyl)ethyl)-3-(5-(pyrimidin-5-yl)-1H-pyrrolo[2,3-b]pyridin-3-yl)acrylamide]",500 to 1000,> 10000
"COc1ccc([C@@H](C)NC(=O)/C=C/c2c[nH]c3ncc(-c4cccc(S(N)(=O)=O)c4)cc23)cc1OC [Example 208, (R,E)-N-(1-(3,4-dimethoxyphenyl)ethyl)-3-(5-(3-sulfamoylphenyl)-1H-pyrrolo[2,3-b]pyridin-3-yl)acrylamide]",≤ 50,1000 to 10000
"COc1ccc([C@@H](C)NC(=O)/C=C/c2c[nH]c3ncc(-c4c(C)nn(C)c4C)cc23)cc1OC [Example 209, (R,E)-N-(1-(3,4-dimethoxyphenyl)ethyl)-3-(5-(1,3,5-trimethyl-1H-pyrazol-4-yl)-1H-pyrrolo[2,3-b]pyridin-3-yl)acrylamide]",50 to 100,> 10000
"COc1ccc([C@@H](C)NC(=O)/C=C/c2c[nH]c3ncc(-c4cnn(CCN5CCOCC5)c4)cc23)cc1OC [Example 210, (R,E)-N-(1-(3,4-dimethoxyphenyl)ethyl)-3-(5-(1-(2-morpholinoethyl)-1H-pyrazol-4-yl)-1H-pyrrolo[2,3-b]pyridin-3-yl)acrylamide]",≤ 50,1000 to 10000
"COc1ccc([C@@H](C)NC(=O)/C=C/c2c[nH]c3ncc(-c4cnn(C)c4C#N)cc23)cc1OC [Example 211, (R,E)-3-(5-(5-cyano-1-methyl-1H-pyrazol-4-yl)-1H-pyrrolo[2,3-b]pyridin-3-yl)-N-(1-(3,4-dimethoxyphenyl)ethyl)acrylamide]",≤ 50,500 to 1000
"COc1ccc([C@@H](C)NC(=O)/C=C/c2c[nH]c3ncc(-c4cn(C)nc4C)cc23)cc1OC [Example 212, (R,E)-N-(1-(3,4-dimethoxyphenyl)ethyl)-3-(5-(1,3-dimethyl-1H-pyrazol-4-yl)-1H-pyrrolo[2,3-b]pyridin-3-yl)acrylamide]",≤ 50,1000 to 10000
"COc1ccc([C@@H](C)NC(=O)/C=C/c2c[nH]c3ncc(-c4cnn(CC(C)O)c4)cc23)cc1OC (stereo partly drawn) [Example 214, (E)-N-((R)-1-(3,4-dimethoxyphenyl)ethyl)-3-(5-(1-(2-hydroxypropyl)-1H-pyrazol-4-yl)-1H-pyrrolo[2,3-b]pyridin-3-yl)acrylamide]",≤ 50,1000 to 10000
"COc1ccc([C@@H](C)NC(=O)/C=C/c2c[nH]c3ncc(-c4cnn(C5COC5)c4)cc23)cc1OC [Example 215, (R,E)-N-(1-(3,4-dimethoxyphenyl)ethyl)-3-(5-(1-(oxetan-3-yl)-1H-pyrazol-4-yl)-1H-pyrrolo[2,3-b]pyridin-3-yl)acrylamide]",≤ 50,1000 to 10000
